Test results from ChEMBL document CHEMBL1150986, “Tripeptidyl pyridinium methyl ketones as potent active site inhibitors of thrombin” (Bioorg Med Chem Lett, 1996).

Tests used:
Prothrombin [1] = target: T1, Prothrombin (Homo sapiens, UniProt P00734); test: Compound was measured for the inhibition of alpha-human thrombin by clotting test
Prothrombin [2] = target: T1, Prothrombin; test: Compound was measured for the inhibition of alpha-human thrombin by amidolytic assay

Ki (Prothrombin [1]) [nM]	IC50 (Prothrombin [2]) [nM]	Compound
21	180	CC(=O)N[C@H](CC1CCCCC1)C(=O)N1CCC[C@H]1C(=O)N[C@@H](CCCN=C(N)N)C(=O)C[n+]1ccccc1
60	410	CC(=O)[C@H](CCCN=C(N)N)NC(=O)[C@@H]1CCCN1C(=O)[C@H](N)CC1CCCCC1
310	2700	CC(=O)N[C@H](Cc1ccccc1)C(=O)N1CCC[C@H]1C(=O)N[C@@H](CCCNC(=N)N)C(=O)C[n+]1ccccc1
185	630	CC(=O)N[C@H](CC1CCCCC1)C(=O)N1CCC[C@H]1C(=O)N[C@@H](CCCN=C(N)N)C(=O)Cc1ccccc1

Compound	Ki (Prothrombin [1]) [nM]	IC50 (Prothrombin [2]) [nM]
N=C(N)NCCC[C@H](NC(=O)[C@@H]1CCCN1C(=O)[C@H](N)CC1CCCCC1)C(=O)C[n+]1ccccc1	0.19	1.7
N=C(N)NCCC[C@H](NC(=O)[C@@H]1CCCN1C(=O)[C@H](N)CC1CCCCC1)C(=O)Cc1ccccc1	1.25	9.9
